# Experimental data taken from patent US20180319810A1, “SUBSTITUTED BRIDGED UREA ANALOGS AS SIRTUIN MODULATORS” (GlaxoSmithKline Intellectual Property (No.2) Limited, priority 2014, published 2018).
# Target: T1, SIRT1 (Homo sapiens, UniProt Q96EB6)
# T1 sequence (Q96EB6 1-747): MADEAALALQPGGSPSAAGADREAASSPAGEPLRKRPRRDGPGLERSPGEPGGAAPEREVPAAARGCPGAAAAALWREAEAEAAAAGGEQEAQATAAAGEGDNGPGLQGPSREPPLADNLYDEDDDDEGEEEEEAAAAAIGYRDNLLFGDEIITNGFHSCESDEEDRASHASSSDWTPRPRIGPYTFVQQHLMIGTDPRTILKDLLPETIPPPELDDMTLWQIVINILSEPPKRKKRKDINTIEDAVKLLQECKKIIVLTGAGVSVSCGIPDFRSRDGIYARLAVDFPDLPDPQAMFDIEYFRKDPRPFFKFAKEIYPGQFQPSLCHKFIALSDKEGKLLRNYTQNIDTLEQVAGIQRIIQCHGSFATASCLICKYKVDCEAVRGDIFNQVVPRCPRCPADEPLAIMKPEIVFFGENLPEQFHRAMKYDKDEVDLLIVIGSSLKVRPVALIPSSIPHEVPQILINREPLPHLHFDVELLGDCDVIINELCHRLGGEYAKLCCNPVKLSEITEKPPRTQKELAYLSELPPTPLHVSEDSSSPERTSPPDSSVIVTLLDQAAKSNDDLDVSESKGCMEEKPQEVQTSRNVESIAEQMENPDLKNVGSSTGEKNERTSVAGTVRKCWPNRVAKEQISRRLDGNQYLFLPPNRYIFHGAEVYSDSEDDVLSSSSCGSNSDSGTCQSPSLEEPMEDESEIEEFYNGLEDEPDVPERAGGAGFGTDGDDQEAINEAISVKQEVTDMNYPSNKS
# Test: Trp mass spectrometry assay of SIRT1 activation
# Type: biochemical
# Details: Trp peptide Ac-R-H-K-K(Ac)-W-NH2 0.5 μM, 120 μM βNAD+, 10 nM SIRT1, 25 min, 25° C.
"TRP Activity (EC1.5, concentration of compound required to increase SIRT1 activity by 50% over control)",TRP MAX RESP (percent maximum fold activation relative to control),Compound
A (EC1.5<1 μM),A (Fold activation ≥150%),"Cc1ncc(-c2ccnc(NC(=O)N3c4nc(C(=O)N[C@H](C)C(F)(F)F)nc(C)c4N4CCC[C@H]3C4)c2)o1 [Example 71, (9S)-4-methyl-N10-(4-(2-methyloxazol-5-yl)pyridin-2-yl)-N2-((R)-1,1,1-trifluoropropan-2-yl)-8,9-dihydro-6H-5,9-methanopyrimido[4,5-b][1,4]diazocine-2,10(7H)-dicarboxamide]"
A (EC1.5<1 μM),A (Fold activation ≥150%),"O=C(Nc1cc(OC[C@H](O)CO)ncn1)N1c2nc(-c3cccc(C(F)(F)F)c3)ncc2N2CCC[C@H]1C2 [Example 92, (9S)—N-(6-((R)-2,3-dihydroxypropoxy)pyrimidin-4-yl)-2-(3-(trifluoromethyl)phenyl)-8,9-dihydro-6H-5,9-methanopyrimido[4,5-b][1,4]diazocine-10(7H)-carboxamide]"
A (EC1.5<1 μM),A (Fold activation ≥150%),"C[C@@H](NC(=O)c1ncc2c(n1)N(C(=O)Nc1ccccn1)[C@H]1CCCN2C1)C(F)(F)F [Example 63, (9S)—N10-(pyridin-2-yl)-N2-((R)-1,1,1-trifluoropropan-2-yl)-8,9-dihydro-6H-5,9-methanopyrimido[4,5-b][1,4]diazocine-2,10(7H)-dicarboxamide]"
B (EC1.5 1-25 μM),A (Fold activation ≥150%),"O=C(Nc1cc(OC[C@@H](O)CO)ccn1)N1c2nc(-c3cccc(C(F)(F)F)c3)ncc2N2CC[C@H]1C2 [Example 36, (8S)—N-(4-((S)-2,3-dihydroxypropoxy)pyridin-2-yl)-2-(3-(trifluoromethyl)phenyl)-7,8-dihydro-5,8-methanopyrimido[4,5-b][1,4]diazepine-9(6H)-carboxamide]"
A (EC1.5<1 μM),A (Fold activation ≥150%),"O=C(Nc1ccnc(OC[C@@H](O)CO)n1)N1c2nc(-c3cccc(C(F)(F)F)c3)ncc2N2CCC[C@H]1C2 [Example 79, (9S)—N-(2-((S)-2,3-dihydroxypropoxy)pyrimidin-4-yl)-2-(3-(trifluoromethyl)phenyl)-8,9-dihydro-6H-5,9-methanopyrimido[4,5-b][1,4]diazocine-10(7H)-carboxamide]"
B (EC1.5 1-25 μM),A (Fold activation ≥150%),"O=C(Nc1cc(OC[C@@H](O)CO)ncn1)N1c2nc(-c3cccc(C(F)(F)F)c3)ncc2N2CC[C@H]1C2 [Example 29, (8S)—N-(6-((S)-2,3-dihydroxypropoxy)pyrimidin-4-yl)-2-(3-(trifluoromethyl)phenyl)-7,8-dihydro-5,8-methanopyrimido[4,5-b][1,4]diazepine-9(6H)-carboxamide]"
B (EC1.5 1-25 μM),A (Fold activation ≥150%),"Cn1cccc(NC(=O)N2c3nc(C(=O)NCC(F)(F)F)ncc3N3CC[C@H]2C3)c1=O [Example 2, (8S)—N9-(1-methyl-2-oxo-1,2-dihydropyridin-3-yl)-N2-(2,2,2-trifluoroethyl)-7,8-dihydro-5,8-methanopyrimido[4,5-b][1,4]diazepine-2,9(6H)-dicarboxamide]"
B (EC1.5 1-25 μM),A (Fold activation ≥150%),"C[C@@H](NC(=O)c1ncc2c(n1)N(C(=O)Nc1cccc(OC[C@H](O)CO)n1)[C@H]1CCCN2C1)C(F)(F)F [Example 78, (9S)—N10-(6-((R)-2,3-dihydroxypropoxy)pyridin-2-yl)-N2-((R)-1,1,1-trifluoropropan-2-yl)-8,9-dihydro-6H-5,9-methanopyrimido[4,5-b][1,4]diazocine-2,10(7H)-dicarboxamide]"
B (EC1.5 1-25 μM),A (Fold activation ≥150%),"O=C(Nc1cncc(OC[C@@H](O)CO)c1)N1c2nc(-c3cccc(C(F)(F)F)c3)ncc2N2CC[C@H]1C2 [Example 24, (8S)—N-(5-((S)-2,3-dihydroxypropoxy)pyridin-3-yl)-2-(3-(trifluoromethyl)phenyl)-7,8-dihydro-5,8-methanopyrimido[4,5-b][1,4]diazepine-9(6H)-carboxamide]"
A (EC1.5<1 μM),A (Fold activation ≥150%),"Cc1nc(-c2cccc(C(F)(F)F)c2)nc2c1N1CCC[C@@H](C1)N2C(=O)Nc1nccc(OC[C@H](O)CO)n1 [Example 111, (9S)—N-(4-((R)-2,3-dihydroxypropoxy)pyrimidin-2-yl)-4-methyl-2-(3-(trifluoromethyl)phenyl)-8,9-dihydro-6H-5,9-methanopyrimido[4,5-b][1,4]diazocine-10(7H)-carboxamide]"
A (EC1.5<1 μM),A (Fold activation ≥150%),"Cc1nc(-c2cccc(C(F)(F)F)c2)nc2c1N1CCC[C@@H](C1)N2C(=O)Nc1nccc(OC[C@@H](O)CO)n1 [Example 112, (9S)—N-(4-((S)-2,3-dihydroxypropoxy)pyrimidin-2-yl)-4-methyl-2-(3-(trifluoromethyl)phenyl)-8,9-dihydro-6H-5,9-methanopyrimido[4,5-b][1,4]diazocine-10(7H)-carboxamide]"
A (EC1.5<1 μM),A (Fold activation ≥150%),"O=C(Nc1cccc(OC[C@@H](O)CO)n1)N1c2nc(-c3cccc(C(F)(F)F)c3)ncc2N2CCC[C@H]1C2 [Example 84, (9S)—N-(6-((S)-2,3-dihydroxypropoxy)pyridin-2-yl)-2-(3-(trifluoromethyl)phenyl)-8,9-dihydro-6H-5,9-methanopyrimido[4,5-b][1,4]diazocine-10(7H)-carboxamide]"
A (EC1.5<1 μM),A (Fold activation ≥150%),"O=C(Nc1cnc(OC[C@@H](O)CO)nc1)N1c2nc(-c3cccc(C(F)(F)F)c3)ncc2N2CCC[C@H]1C2 [Example 102, (9S)—N-(2-((S)-2,3-dihydroxypropoxy)pyrimidin-5-yl)-2-(3-(trifluoromethyl)phenyl)-8,9-dihydro-6H-5,9-methanopyrimido[4,5-b][1,4]diazocine-10(7H)-carboxamide]"
B (EC1.5 1-25 μM),A (Fold activation ≥150%),"Cc1nc(-c2cccc(C(F)(F)F)c2)nc2c1N1CC[C@@H](C1)N2C(=O)Nc1ccnc(OC[C@@H](O)CO)c1 [Example 57, (8S)—N-(2-((S)-2,3-dihydroxypropoxy)pyridin-4-yl)-4-methyl-2-(3-(trifluoromethyl)phenyl)-7,8-dihydro-5,8-methanopyrimido[4,5-b][1,4]diazepine-9(6H)-carboxamide]"
